Measured values: ChEMBL document CHEMBL1201862, “PubChem BioAssay data set” (2004)
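Values below derive from 48-hour exposures of cells grown in 96-well plates, with endpoints linearly interpolated between the two concentrations bracketing the appropriate inhibition level. GI50 marks 50% less growth.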 Calls of active or inactive are those of the source. Rule as the data show it: active = GI50 up to about 1.1 µM and inactive = higher.

Legend:
Assay in all cases: NCI anticancer screen, dose series, 48 h
HL-60 = system: HL-60
SK-OV-3 = system: SK-OV-3
A549 = system: A549
NCI/ADR-RES = system: NCI/ADR-RES
EKVX = system: EKVX
U-251 = system: U-251
SF-268 = system: SF-268
Hs-578T = system: Hs-578T
MDA-MB-231 = system: MDA-MB-231
OVCAR-5 = system: OVCAR-5
SNB-19 = system: SNB-19
DU-145 = system: DU-145
SN12C = system: SN12C
MDA-N = system: MDA-N
HCT-15 = system: HCT-15
ACHN = system: ACHN
PC-3 = system: PC-3
HCC 2998 = system: HCC 2998
COLO 205 = system: COLO 205
786-0 = system: 786-0

Row | Compound | GI50 (HL-60) | GI50 (SK-OV-3) | GI50 (A549) | GI50 (NCI/ADR-RES) | GI50 (EKVX) | GI50 (U-251) | GI50 (SF-268) | GI50 (Hs-578T) | GI50 (MDA-MB-231) | GI50 (OVCAR-5) | GI50 (SNB-19) | GI50 (DU-145) | GI50 (SN12C) | GI50 (MDA-N) | GI50 (HCT-15) | GI50 (ACHN) | GI50 (PC-3) | GI50 (HCC 2998) | GI50 (COLO 205) | GI50 (786-0)
1 | O=C1c2ccccc2CC12Cc1cc3c(cc1C2)CCC3 | 24 µM (inactive) | > 100 µM (inactive) | > 100 µM (inactive) | 44 µM (inactive) | 99.3 µM (inactive) | 43.1 µM (inactive) | > 100 µM (inactive) | > 100 µM (inactive) | > 100 µM (inactive) | > 100 µM (inactive) | > 100 µM (inactive) | > 100 µM (inactive) | 59.7 µM (inactive) | 37.5 µM (inactive) | 43.2 µM | 43.3 µM (inactive) | 39.8 µM (inactive) | 57.5 µM (inactive) | 31.3 µM (inactive) | 94.4 µM (inactive)
2 | COC(O)C(=O)c1c2c(cc3c1CCC3)CCCC2 (stereo not given) | 1.56 µM (inactive) | 12 µM (inactive) | 18.6 µM (inactive) | 14.7 µM (inactive) | 16.7 µM (inactive) | 14 µM (inactive) | 15.2 µM (inactive) | 4.22 µM (inactive) | 9.64 µM (inactive) | 18.1 µM (inactive) | 17.2 µM (inactive) | 14.1 µM (inactive) | 4.66 µM (inactive) | 13 µM (inactive) | 4.25 µM | 8.38 µM (inactive) | 4.32 µM (inactive) | 1.97 µM (inactive) | 6.62 µM (inactive) | 14.1 µM (inactive)
3 | Cc1nc2ccccc2n1Cc1nnc2n1N=C(c1ccccc1)CS2 | 29.2 µM (inactive) | > 100 µM (inactive) | 36.2 µM (inactive) | 64.1 µM (inactive) | 34.3 µM (inactive) | 25.1 µM (inactive) | 40.9 µM (inactive) | 38.5 µM (inactive) | 20.6 µM (inactive) | 53.3 µM (inactive) | 32.1 µM (inactive) | 37.5 µM (inactive) | 36.6 µM (inactive) | 32.3 µM (inactive) | 54.8 µM | 47.6 µM (inactive) | 16.7 µM (inactive) | 21.4 µM (inactive) | 30.1 µM (inactive) | 44 µM (inactive)
4 | Cc1ccc(CN2CCN(Cc3ccc(C)o3)C(C)C2)o1 (stereo not given) | > 100 µM (inactive) | > 100 µM (inactive) | > 100 µM (inactive) | > 100 µM (inactive) | > 100 µM (inactive) | > 100 µM (inactive) | > 100 µM (inactive) | > 100 µM (inactive) | > 100 µM (inactive) | > 100 µM (inactive) | > 100 µM (inactive) | > 100 µM (inactive) | > 100 µM (inactive) | > 100 µM (inactive) | > 100 µM | > 100 µM (inactive) | > 100 µM (inactive) | > 100 µM (inactive) | > 100 µM (inactive) | > 100 µM (inactive)
5 | COc1c(C(=O)/C(=N/Nc2cccc(Cl)c2)C(C)=O)c(O)c(OC)c2occc12 | > 100 µM (inactive) | > 100 µM (inactive) | > 100 µM (inactive) | > 100 µM (inactive) | 78.7 µM (inactive) | > 100 µM (inactive) | 87.3 µM (inactive) | 70 µM (inactive) | 73.6 µM (inactive) | > 100 µM (inactive) | > 100 µM (inactive) | > 100 µM (inactive) | 61.2 µM (inactive) | > 100 µM (inactive) | > 100 µM | 70 µM (inactive) | 53.5 µM (inactive) | 31.5 µM (inactive) | > 100 µM (inactive) | > 100 µM (inactive)
6 | C=C1CC(C)(COc2ccc3ccc(=O)oc3c2)OC1=O (stereo not given) | 0.256 µM (active) | 8.15 µM (inactive) | 13.5 µM (inactive) | 1.04 µM (active) | 7.53 µM (inactive) | 13 µM (inactive) | 10.9 µM (inactive) | 4.91 µM (inactive) | 8.28 µM (inactive) | 6.73 µM (inactive) | 18.7 µM (inactive) | 3.22 µM (inactive) | 8.22 µM (inactive) | 0.951 µM (active) | 2.61 µM | 3.46 µM (inactive) | 3.48 µM (inactive) | 2.18 µM (inactive) | 0.982 µM (active) | 1.42 µM (inactive)
